Experimental data from patent US20080193563A1, “HARNESSING WNT SIGNALING TO RESTRICT HIV REPLICATION” (priority 2006, published 2008).

Key:
IFNγ receptor on HFA = assay: Cytokine receptor expression on HFA by flow cytometry; type: cell-based, human; conditions: untreated 6%
Experimental: U87MG (A) or HFA (B) were left untreated or treated with GM-CSF (50 ng/ml), IFNγ100 ng/ml) or TNFγ100 ng/ml). […] Percent expression of GM-CSF receptor (R), IFNγR, and TNFγR was measured 24 hours post-stimulation by flow cytometry. Data is representative of three experiments. Error bars represent standard deviations of the mean.
Prior to evaluating if GM-CSF, IFNγ, and TNFγ can augment HIV replication of astrocytes, a question was whether U87MG and HFA express the respective cytokine receptors. U87MG and HFA were treated with or without the respective cytokine for 24 hours and cytokine receptor expression was evaluated by flow cytometry. Approximately 35% of U87MG expressed the IFNγ receptor and a low level of GM-CSF and TNFγ receptors (<8%; FIG. 3A). […] Untreated HFA expressed only low levels of IFNγ receptor (6%) and this expression was abrogated with IFNγ treatment. GM-CSF and TNFγ receptors were not expressed on HFA.

HIV-Bal in HFA = assay: Cytokine pre-stimulation and HIV-Bal replication in human fetal astrocytes, p24 ELISA; type: cell-based; conditions: 24 h pre-stimulation, p24 day 7
Experimental: U87MG (A) and HFA (B) were pre-stimulated with increasing doses of either GM-CSF or IFNγ for 24 h followed by HIV-BAL infection for 24 hours. HIV replication was determined by measuring HIV p24 levels by ELISA seven days post-infection. The dotted line represents basal level of HIV infection of astrocytes without cytokine pre-treatment. Data is representative of three experiments performed in quadruplicate. Error bars represent standard deviations of the mean. Asterisks denote significant values (p<0.05) in comparison to untreated cultures as evaluated by analysis of variance.
To determine if pre-stimulation of astrocytes primes astrocytes, for productive HIV infection, U87MG and HFA were pre-treated for 24 hours with TNFγ, GM-CSF, or IFNγ at various concentrations (0-1000 ng/ml) then infected with HIV-Bal at 10 ng of HIV p24/1×10^6 cells for 24 hours. The cells were then washed extensively or trypsinized to remove bound virus and propagated in the presence of the respective cytokine concentration. HIV infection was monitored by p24 ELISA seven days post-infection. […]
IFN-γ Treatment and HIV Infection. […] HIV infection was monitored at day 7 postinfection by measuring p24 levels by conventional enzyme-linked immunosorbent assay (ELISA) (National Cancer Institute, Frederick, Md.).

## IFNγ: cytokine secreted by lymphocytes, activated microglia and astrocytes; used to prime astrocytes
IFNγ receptor on HFA
  IFNγ receptor expression after treatment: abrogated
HIV-Bal in HFA
  Induction of HIV replication: 2 fold
